Biological target: T1, human GLP-1R receptor (Homo sapiens, UniProt P43220)
T1 construct: expressed in transfected cells
Assay: GLP-1R low expression cell assay (cAMP TR-FRET, CHO-K1_hGLP-1Rlow_clone10 cells)
Format: cell-based
Settings: for EC50: cAMP TR-FRET, 30 min at 25° C.; for Emax: maximum activation relative to control GLP-1 peptide agonist
Procedure: Stable cell lines expressing high and low GLP-1R surface expression were generated in CHO-K1 cells transfected (Fugene 6) with a puromycin selectable DNA plasmid encoding human GLP-1R receptor (accession number: NM_002062.5) under control of an EF1A promoter. Transfected cells were seeded into 24-well plates (9,000 cells/well) containing complete medium and incubated in a humidified incubator at 37° C. with 5% carbon dioxide. After overnight incubation, medium was replaced with complete medium supplemented with puromycin (6 μg/mL) and refreshed every 2-3 days to select for stably transfected cells. Individual pools of selected cells were expanded prior to analysis for responsiveness to GLP-1 control peptide using a TR-FRET assay to detect cAMP (LANCE Ultra CAMP Assay, Perkin Elmer). Briefly, cells were collected in Versene solution, plated in 384-well plates (1,000 cells/well) and combined with serially diluted GLP-IR control peptide (10 nL) using an acoustic dispenser (ECHO). Plates were incubated for 30 minutes at 25° C. prior to the addition of EU-CAMP tracer (5 μL) and Ulight-anti-CAMP (5 μL) reagents to each well, followed by 15 minutes incubation at 25° C. TR-FRET signal was detected using an En Vision Multimode Plate Reader (excitation=320 nm; emission=615 and 655 nm). Dose-response curves were used to generate EC50 values as a measure of responsiveness to the GLP-IR control peptide. Selected cell lines were monitored for responsiveness over multiple passages to ensure stability. […] Briefly, GLP-IR expression was analyzed by flow cytometry using a fluorescein-labeled Exendin-4 peptide fluorescent probe (FLEX). Cells were harvested in Versene solution and washed 3-times with PBS+0.5% BSA before incubation with FLEX reagent (10 μM) for 2 hours at room temperature. After incubation, cells were washed 3-times in PBS+0.5% BSA before final resuspension in PBS prior to analysis by flow cytometry to measure FLEX mean fluorescence intensity (MFI) as a measure of GLP-IR expression on the cell surface.
For compound testing in the CHO-K1_hGLP-IRlow_clone10 cell line, cells were seeded in 384-well plates (1,000 cells/well). Test compounds were serially diluted in DMSO (10-point, 3-fold dilution), added to wells using an ECHO dispenser (10 nL/well) and plates were centrifuged for 1 min and agitated for 2 min at room temperature prior to 30-minute incubation at 25° C. After incubation, Eu-CAMP (5 μL) and Ulight-anti-cAMP (5 μL) reagents were added to each well, followed by centrifugation for 1 minute, agitation for 2 minutes at room temperature, and final incubation of the plates at 25° C. for 15 minutes. Plates were read using an EnVision microplate reader (excitation=320 nm; emission=615 and 655 nm). Dose-response curves were generated from duplicate wells based on percent activation calculated relative to a control GLP-1 peptide agonist that was run in parallel. EC50 values were determined by fitting percent activation as a function of compound concentration using the Hill equation (XLfit).
The compounds tested were compound samples prepared according to the General Procedures described in the Examples section.

T1 sequence (P43220 24-463): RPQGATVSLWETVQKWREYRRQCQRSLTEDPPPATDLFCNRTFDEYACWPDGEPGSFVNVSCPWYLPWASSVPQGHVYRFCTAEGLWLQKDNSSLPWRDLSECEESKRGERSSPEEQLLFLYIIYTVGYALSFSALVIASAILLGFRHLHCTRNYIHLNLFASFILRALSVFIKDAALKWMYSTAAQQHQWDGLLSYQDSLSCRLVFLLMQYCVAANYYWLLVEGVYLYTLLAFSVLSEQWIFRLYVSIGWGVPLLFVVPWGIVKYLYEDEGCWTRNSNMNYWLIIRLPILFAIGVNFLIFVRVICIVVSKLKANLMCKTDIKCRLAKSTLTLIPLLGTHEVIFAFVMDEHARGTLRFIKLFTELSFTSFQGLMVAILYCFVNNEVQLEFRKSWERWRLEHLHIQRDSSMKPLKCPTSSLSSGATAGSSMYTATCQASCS

EC50	Emax	Compound
0.1 to 1 µM	50 to 85%	Cn1c(CN2CCC(c3cccc(OCc4ccc(Cl)cc4F)n3)CC2)nc2c(OC(F)F)cc(-c3noc(=O)[nH]3)cc21 [Compound 236, 3-(2-((4-(6-((4-Chloro-2-fluorobenzyl)oxy)pyridin-2-yl)piperidin-1-yl)methyl)-4-(difluoromethoxy)-1-methyl-1H-benzo[d]imidazol-6-yl)-1,2,4-oxadiazol-5 (4H)-one]
0.01 to 0.1 µM	> 85%	Cn1c(CN2CCC(c3cccc(OCc4ccc(Cl)cc4F)n3)CC2)nc2c(OCC(F)(F)F)cc(C(=O)O)cc21 [Compound 224, 2-((4-(6-((4-Chloro-2-fluorobenzyl)oxy)pyridin-2-yl)piperidin-1-yl)methyl)-1-methyl-4-(2,2,2-trifluoroethoxy)-1H-benzo[d]imidazole-6-carboxylic acid]
> 1 µM	< 25%	COc1c(OCc2ccc(C#N)cc2F)cccc1C1CCN(Cc2nc3c(OC(F)F)cc(C(=O)O)cc3n2C)CC1 [Compound 144, 2-((4-(3-((4-Cyano-2-fluorobenzyl)oxy)-2-methoxyphenyl)piperidin-1-yl)methyl)-4-(difluoromethoxy)-1-methyl-1H-benzo[d]imidazole-6-carboxylic acid]
< 0.01 µM	> 85%	O=C(O)c1ccc2c(nc(CN3CCC(c4cccc(OCc5ccc(Cl)cc5F)n4)CC3)n2C[C@@H]2CCO2)c1O [Compound 245, (S)-2-((4-(6-((4-Chloro-2-fluorobenzyl)oxy)pyridin-2-yl)piperidin-1-yl)methyl)-4-hydroxy-1-(oxetan-2-ylmethyl)-1H-benzo[d]imidazole-5-carboxylic acid]
0.1 to 1 µM	> 85%	Cn1c(CN2CCC(c3ccc(F)c(OCc4ccc(C(N)=O)cc4F)n3)CC2)nc2c(OC(F)F)cc(C(=O)O)cc21 [Compound 185, 2-((4-(6-((4-carbamoyl-2-fluorobenzyl)oxy)-5-fluoropyridin-2-yl)piperidin-1-yl)methyl)-4-(difluoromethoxy)-1-methyl-1H-benzo[d]imidazole-6-carboxylic acid]
> 1 µM	< 25%	CN1C(=O)[C@H](c2ccc(Cl)cc2F)Oc2c(C3CCN(Cc4nc5c(OC(F)F)cc(C(=O)O)cc5n4C)CC3)cccc21 [Compound 241, (S)-2-((4-(2-(4-chloro-2-fluorophenyl)-4-methyl-3-oxo-3,4-dihydro-2H-benzo[b][1,4]oxazin-8-yl)piperidin-1-yl)methyl)-4-(difluoromethoxy)-1-methyl-1H-benzo[d]imidazole-6-carboxylic acid]
0.1 to 1 µM	> 85%	Cn1c(CN2CCC(c3ccnnc3OCc3ccc(Cl)cc3F)CC2)nc2c(OC(F)F)cc(C(=O)O)cc21 [Compound 355, 2-((4-(3-((4-Chloro-2-fluorobenzyl)oxy)pyridazin-4-yl)piperidin-1-yl)methyl)-4-(difluoromethoxy)-1-methyl-1H-benzo[d]imidazole-6-carboxylic acid]
0.01 to 0.1 µM	> 85%	CS(=O)(=O)Nc1cc(C(=O)O)cc2c1nc(CN1CCC(c3cccc(OCc4ccc(C#N)cc4F)n3)CC1)n2C[C@@H]1CCO1 [Compound 129, (S)-2-((4-(6-((4-cyano-2-fluorobenzyl)oxy)pyridin-2-yl)piperidin-1-yl)methyl)-4-(methylsulfonamido)-1-(oxetan-2-ylmethyl)-1H-benzo[d]imidazole-6-carboxylic acid]
> 1 µM	25 to 50%	COc1cc(C(=O)O)cc2c1nc(CN1CCC(c3cccc4c3O[C@@H](c3ccc(C#N)cc3F)CO4)CC1)n2C [Compound 314, (S)-2-((4-(3-(4-Cyano-2-fluorophenyl)-2,3-dihydrobenzo[b][1,4]dioxin-5-yl)piperidin-1-yl)methyl)-4-methoxy-1-methyl-1H-benzo[d]imidazole-6-carboxylic acid]
< 0.01 µM	> 85%	COc1cc(C(=O)O)cc2c1nc(N(C)[C@H]1CC[C@H](c3cccc(OCc4ccc(C#N)cc4F)n3)CC1)n2C [Compound 178, 2-(((1r,4r)-4-(6-((4-Cyano-2-fluorobenzyl)oxy)pyridin-2-yl)cyclohexyl)(methyl)amino)-4-methoxy-1-methyl-1H-benzo[d]imidazole-6-carboxylic acid]
0.01 to 0.1 µM	> 85%	[2H]C([2H])(Oc1cccc(C2CCN(Cc3nc4c(OC(F)F)cc(C(=O)O)cc4n3C)CC2)n1)c1ccc(Cl)cc1F [Compound 195, 2-((4-(6-((4-Chloro-2-fluorophenyl)methoxy-d2)pyridin-2-yl)piperidin-1-yl)methyl)-4-(difluoromethoxy)-1-methyl-1H-benzo[d]imidazole-6-carboxylic acid]
0.01 to 0.1 µM	> 85%	Cn1c(CN2CCC(Oc3cccc(COc4ccc(Cl)cc4F)n3)CC2)nc2c(OC(F)F)cc(C(=O)O)cc21 [Compound 196, 2-((4-((6-((4-Chloro-2-fluorophenoxy)methyl)pyridin-2-yl)oxy)piperidin-1-yl)methyl)-4-(difluoromethoxy)-1-methyl-1H-benzo[d]imidazole-6-carboxylic acid]
0.01 to 0.1 µM	> 85%	CCC(F)Oc1cc(C(=O)O)cc2c1nc(CN1CCC(c3cccc(OCc4ccc(Cl)cc4F)n3)CC1)n2C (centres unmarked) [Compound 351, 2-((4-(6-((4-Chloro-2-fluorobenzyl)oxy)pyridin-2-yl)piperidin-1-yl)methyl)-4-(1-fluoropropoxy)-1-methyl-1H-benzo[d]imidazole-6-carboxylic acid]
0.01 to 0.1 µM	> 85%	Cn1c(CN2CCC(c3cccc(OCc4ccc(C#N)cc4F)n3)CC2)nc2c(OC(C)(F)F)cc(C(=O)O)cc21 [Compound 180, 2-((4-(6-((4-Cyano-2-fluorobenzyl)oxy)pyridin-2-yl)piperidin-1-yl)methyl)-4-(1,1-difluoroethoxy)-1-methyl-1H-benzo[d]imidazole-6-carboxylic acid]
0.01 to 0.1 µM	> 85%	COc1cc(C(=O)O)cc2c1nc(CN1CCC(c3cccc(OCc4ccc(Cl)cc4F)n3)CC1)n2CF [Compound 209, 2-((4-(6-((4-Chloro-2-fluorobenzyl)oxy)pyridin-2-yl)piperidin-1-yl)methyl)-1-(fluoromethyl)-4-methoxy-1H-benzo[d]imidazole-6-carboxylic acid]
< 0.01 µM	> 85%	COCCOCCOCCOCCOCCOc1cc(C(=O)O)cc2c1nc(CN1CCC(c3cccc4c3O[C@@](C)(c3ccc(Cl)cn3)O4)CC1)n2Cc1cncs1 [Compound 4, (S)-4-((2,5,8,11,14-pentaoxahexadecan-16-yl)oxy)-2-((4-(2-(5-chloropyridin-2-yl)-2-methylbenzo[d][1,3]dioxol-4-yl)piperidin-1-yl)methyl)-1-(thiazol-5-ylmethyl)-1H-benzo[d]imidazole-6-carboxylic acid]
> 1 µM	> 85%	CCOc1cc(C(=O)O)cc2c1nc(CN1CCC(c3cccc4c3O[C@@H](c3ccc(C#N)cc3F)CO4)CC1)n2C [Compound 287, (S)-2-((4-(3-(4-Cyano-2-fluorophenyl)-2,3-dihydrobenzo[b][1,4]dioxin-5-yl)piperidin-1-yl)methyl)-4-ethoxy-1-methyl-1H-benzo[d]imidazole-6-carboxylic acid]
< 0.01 µM	50 to 85%	COc1cc(-c2cc(=O)[nH]o2)cc2c1nc(CN1CCC(c3cccc(OCc4ccc(Cl)cc4F)n3)CC1)n2C[C@@H]1CCO1 [Compound 382, (S)-5-(2-((4-(6-((4-Chloro-2-fluorobenzyl)oxy)pyridin-2-yl)piperidin-1-yl)methyl)-4-methoxy-1-(oxetan-2-ylmethyl)-1H-benzo[d]imidazol-6-yl) isoxazol-3 (2H)-one]

Compound	EC50	Emax
Cn1c(CN2CCC(c3cccc(OCc4ccc(Cl)cc4F)n3)CC2)nc2c(O[C@H]3C[C@@H](F)C3)cc(C(=O)O)cc21 [Compound 379, 2-((4-(6-((4-Chloro-2-fluorobenzyl)oxy)pyridin-2-yl)piperidin-1-yl)methyl)-4-((1s,3s)-3-fluorocyclobutoxy)-1-methyl-1H-benzo[d]imidazole-6-carboxylic acid]	0.01 to 0.1 µM	> 85%

— patent US20240368120A1 (Terns Pharmaceuticals, Inc., priority 2023, published 2024)
